Patent publication US20240345376A1, “SYSTEM AND METHOD FOR NANOSCALE AXIAL LOCALIZATION AND SUPER […] IMAGING WITH HEIGHT-[…]” (The George Washington University, priority 2021, published 2024)

System: SKBR3 cells
Test: Plasma membrane tension and bending modulus mapping from MAxSIM height fluctuation data in live cells
Format: cell-based
Conditions: 5 μM for 30 minutes, FIG. 12C
Description: Analysis of single-pixel-level plasma membrane biomechanics in live cells using the time-dependent membrane heights acquired by MAxSIM imaging: Utilizing MAxSIM technology, we mapped the membrane tension and bending modulus of plasma membranes in MCF7 cells (low HER2 expression) and SKBR3 (HER2 overexpression enabling constitutive HER2 activity). […] This approach, based on the Helfrich-Canham model, has been commonly employed in the literature, allowing the membrane tension (o) and bending modulus (K) to be linked to height fluctuations by the following equation.
where ? |h(q)|^2 ? represents the power spectral density of the membrane height fluctuations, q is the wave vector, kbT is the thermal energy, σ is the membrane tension, and κ is the bending modulus. From fitting the raw experimental data to this function, membrane tension (σ) and bending modulus (κ) are extracted (FIGS. 12A, 12B, 12C). To identify mechanical compartments, we will utilize and compare various cluster analysis methods we have tested, including K-means analysis, which groups similar data points into K clusters based on their proximity to cluster centers, and DBscan, a density-based clustering algorithm that groups data points based on their proximity.
1. Super-resolution imaging and single-molecule-tracking tools and mechanical property measurements: a. […]

C/C1=C/C(=O)O[C@@H]2C[C@@H](CC[C@H](C)/C=C\C=C\CC1)O[C@@](O)([C@@H]1CSC(=O)N1)C2 [latrunculin A]
mechanical compartmentalization (membrane tension and bending modulus) on the basal plasma membrane: significant reduction
